The subject of assay [1] is ASIC3-like currents in rat DRG neurons. The assay can be described thus: Voltage clamp of proton-evoked ASIC3-like currents in acutely isolated rat DRG neurons. The assay is classed as cell-based. As to conditions: 10^−5 M for 1 min; capsazepine 10 μM present; −60 mV; n = 9. From the text: (§1) The experimental protocol was approved by the animal research ethics committee of Hubei University of Science and Technology (No. 2016–67). All procedures conformed to international guidelines on the ethical use of animals, and every effort was made to minimize the number of animals used and their sufferings. Five- to 6-week-old Sprague–Dawley male rats were anesthetized with 7% chloral hydrate and then decapitated. The DRGs were taken out and transferred immediately into Dulbecco’s modified Eagle’s medium (DMEM, Sigma) at pH 7.4. After the removal of the surrounding connective tissues, the DRGs were minced with fine spring scissors and the ganglion fragments were placed in a flask containing 5 ml of DMEM in which trypsin (type II-S, Sigma) 0.5 mg/ml, collagenase (type I-A, Sigma) 1.0 mg/ml, and DNase (type IV, Sigma) 0.1 mg/ml had been dissolved and incubated at 35 °C in a shaking water bath for 25–30 min. Soybean trypsin inhibitor (type II-S, Sigma) 1.25 mg/ml was then added to stop trypsin digestion. The incubating solution was then replaced by external solution. Dissociated neurons were placed into a 35-mm Petri dish and kept for at least 1 h in normal external solution before the start of electrophysiological experiments. After plating of the DRG neurons, the neurons were used for experiments within 24 h. The neurons selected for electrophysiological experiment were 15–35 μm in diameter.
Whole-cell patch clamp and voltage clamp recordings were carried out at room temperature (22–25 °C) using a MultiClamp-700B amplifier and Digidata-1440A A/D converter (Axon Instruments, CA, USA). Recording pipettes were pulled using a Sutter P-97 puller (Sutter Instruments, CA, USA). The micropipettes were filled with internal solution containing (mM) KCl 140, MgCl2 2.5, HEPES 10, EGTA 11, and ATP 5; its pH was adjusted to 7.2 with KOH, and osmolarity was adjusted to 310 mOsm/L with sucrose. Cells were bathed in an external solution containing (mM) NaCl 150, KCl 5, CaCl2 2.5, MgCl2 2, HEPES 10, D-glucose 10; its osmolarity was adjusted to 330 mOsm/L with sucrose and its pH to 7.4. The resistance of the recording pipette was in the range of 3–6 MΩ. A small patch of membrane underneath the tip of the pipette was aspirated to form a giga seal, and then, a negative pressure was applied to rupture it, thus establishing a whole-cell configuration. The series resistance was compensated for by 70–80%. The adjustment of capacitance compensation was also done before recording the membrane currents. […]
(§2) Drugs purchased from Sigma and used in the experiments include hydrochloric acid, 2-furoyl-LIGRLO-NH2 (a PAR2-activating peptide (PAR2-AP)), trypsin, FSLLRY-NH2, APETx2, and capsazepine. […] The application pipette tips were positioned ∼30 μm away from the recorded neurons. […]

For another assay, the system named is rats. The assay can be described thus: Nociceptive behavior (flinches) induced by intraplantar acetic acid in rats. It is filed as in vivo, rat. As to conditions: capsazepine 100 μM, n = 10. As for the experimental part:
Rats were placed in a 30 × 30 × 30 cm Plexiglas chamber and allowed to habituate for at least 30 min before nociceptive behavior experiments. A blind experiment was carried out. Separate groups of rats were coded and pretreated with 20 μl capsazepine (100 μM) together with vehicle and different dosages of PAR2-AP, FSLLRY-NH2, or APETx2 in the ipsilateral hind paw before injection of acetic acid. […] And nociceptive behavior (that is, number of flinches) was counted over a 5-min period starting immediately after the injection.
We finally ascertain whether PAR2-AP facilitates pain-related behaviors through interacting with ASIC3 in vivo. Acetic acid (0.6%) was injected into the right hind paws of rats and measured the number of flinches that the animals spent licking and/or lifting the injected paw. Intraplantar injection of acetic acid elicits an intense flinch/shaking response which mainly occurred during 0–5 min after injection of acetic acid. […] However, the low dose (1 μg) of PAR2-AP had no effect on the acidosis-induced nocifensive behaviors (Bonferroni’s post hoc test, P > 0.1, n = 10). In addition, the exacerbating effect of 10 μg PAR2-AP on acidosis-induced nocifensive behaviors was blocked by co-administration of 20 μg FSLLRY-NH2, a selective PAR2 antagonist (Bonferroni’s post hoc test, P < 0.01, compared with 10 μg PAR2-AP alone, n = 10; Fig. 6a).

The subject of a further assay is rat DRG neurons. The assay can be described thus: Current clamp of acidosis-evoked action potentials (spikes) in rat DRG neurons. It is filed as cell-based. Conditions: PAR2-AP 10^−5 M for 1 min; pH 6.6 for 5 s; capsazepine 10 μM; control 3.5 ± 0.6; P < 0.05; n = 9.
Description: as §1, with “Dissociated neurons were placed into a 35-mm Petri dish and kept for at least 1 h in normal external solution before the start of electrophysiological experiments. After plating of the DRG neurons, the neurons were used for experiments within 24 h. The neurons selected for electrophysiological experiment were 15–35 μm in diameter.” left out
as §2

Turning to 2-furoyl-LIGRLO-NH2 [PAR2-AP], in assay [1], the “increase of peak amplitude of I pH 6.6 in DRG neurons after agonist pretreatment” value was found to be 57.1 ± 9.8%. Also, the “effect on acidosis-induced nocifensive behaviors (number of flinches), low dose” value with rats (PAR2-AP 1 μg intraplantar, 5 min before acetic acid 0.6%, 20 μl, flinches over 5 min, P > 0.1) was “no effect”. Moreover, in the assay on rats (PAR2-AP 3 μg intraplantar, P < 0.05), the “acetic acid-induced number of flinches vs acetic acid alone, medium dose” value is recorded as “significantly greater”. Moreover, the “acetic acid-induced number of flinches vs acetic acid alone, high dose” value in the assay with rats (PAR2-AP 10 μg intraplantar, P < 0.01) is recorded as “significantly greater”. In addition, in the assay on rat DRG neurons, the “mean number of spikes induced by acidosis after PAR2-AP pretreatment” value stood at 6.3 ± 0.9.

Source of the values: article PMC5534107, “Sensitization of ASIC3 by proteinase-activated receptor 2 signaling contributes to acidosis-induced nociception” (Journal of Neuroinflammation, 2017).
